The values below come from PMC11996864, “A small-molecule inhibitor of BCL10-MALT1 interaction abrogates progression of diffuse large B cell lymphoma” (The Journal of Clinical Investigation, 2025).

SMILES strings stand for the structures. Several values for one entry are separate records, joined by “and”; a condition that tells them apart may be missing. Equal values may be shown once.

What all share (assay type): cell-based, human
Assay [1] has as its system RelB cleavage in TMD8 cells. The assay can be described thus: Constitutive RelB cleavage, Western blot. To be noted: result in words. On the procedure: (§1) Western blot analysis of RelB and N4BP1 cleavage was used to test the effect of small molecules on MALT1 protease activity. To this end, 3 million Jurkat T cells were pretreated with compounds for 24 hours in serum-free media, and then 5 μM MG-132 was added for 1 hour before stimulation with CD3/CD28 (Stemcell Technologies, catalog 10971), and lysed in RIPA buffer (Millipore, catalog 20-188) with protease and phosphatase inhibitor cocktail (Pierce, catalog 78446). IKKα/β phosphorylation and IκBα phosphorylation were used as measures of MALT1 scaffolding activity, while ERK1/2 phosphorylation was used as a control. Two million Jurkat T cells were treated with 1 μM M1i-124, 1 μM M1i-124d1, or DMSO in serum-free media for 16 hours, stimulated with CD3/CD28 for 0, 5, 10, or 20 minutes, and then immediately lysed in RIPA buffer with protease and phosphatase inhibitors. For experiments evaluating RelB cleavage and phosphorylation of IκBα in TMD8 cells, cells were treated with compounds for 24 hours in media containing 5% FBS. For RelB Western blot analysis, 5 μM MG-132 (Cell Signaling Technology, catalog 2194s) was added 4 hours before lysis in RIPA lysis buffer with protease/phosphatase inhibitors.

Assay [2] concerns OCI-Ly1 cells. The assay can be described thus: Cell proliferation, trypan blue cell count. The following applies: for OCI-Ly1 Viable Cells: Mepazine at 1 µM. The source says:
(§2) Cell proliferation, viability, and apoptosis assays. Starting with ~20,000 DLBCL cells in 5% FBS
(§3) at day 0, cell number was counted using the trypan blue dye exclusion method with Vi-CELL cell

Assay [3] has as its system OCI-Ly7 cells. Briefly: Cell proliferation, trypan blue cell count. The following applies: for Viable cell count: second block headed OCI-Ly1, Day 0, Mepazine at 1 µM.
Excerpt: as §2, §3

Assay [4] has as its system TMD8 cells. The assay can be described thus: Cell proliferation, trypan blue cell count. To be noted: for TMD8 Viable Cells: Mepazine at 1 µM.
Excerpt: as §2, §3

Assay [5] concerns IκB phosphorylation in TMD8 cells. The assay can be described thus: Constitutive IκB phosphorylation, Western blot. On the procedure: as §1
The subject of assay [6] is RelB cleavage in Jurkat T cells. Briefly: CD3/CD28-induced RelB cleavage, Western blot (MALT1 protease activity). On the procedure:
as §1

Assay [7] has as its system IL-2 secretion from Jurkat T cells. Briefly: Secreted IL-2 ELISA after PMA/Iono. The following applies: for IL-2: PMA/Iono. On the procedure: Cytokine ELISAs. Cytokines in cell culture supernatants were measured 20-24h after treatment with 0, 0.01, 0.03, 0.1, 0.3, 1, or 3 µM of compounds using the following ELISA kits according to the manufacturer’s instructions: Human IL-2 ELISA (BioLegend Cat# 431804), Human IL-6 ELISA (BioLegend Cat# 430504), and Human IL-10 ELISA (BioLegend Cat# 430604). […]
Jurkat T cells were pretreated with specific doses of compounds for 8 hours in serum-free media, then stimulated with PMA/ionomycin for 16 hours prior to the collection of supernatants. […]

For assay [8], the system named is IL2 mRNA in Jurkat T cells. Briefly: IL2 mRNA induction by PMA/Iono, qRT-PCR. The following applies: for IL2 mRNA (normalized): Jurkat, + PMA/Iono. On the procedure:
qRT-PCR. Jurkat T cells grown in serum free media for 4 hours with indicated inhibitors prior to stimulation with PMA/Ionomycin for 4 hours. […]
Total RNA extraction from the […]
(§4) Kit. RNA was transcribed into cDNA using High-Capacity cDNA Reverse Transcription Kit (Applied Biosystems, Cat# 4368814) according to manufacturer’s instructions. RT-PCR was performed using TaqMan Universal PCR Master Mix (Applied Biosystems, Cat# 4304437) and run on a StepOnePlus Real-Time PCR machine (Applied Biosystems). The following probes from ThermoFisher Scientific were used for qRT-PCR: IL2 TaqMan probe Hs00174114, IL6 TaqMan

Assay [9] has as its system OCI-Ly3 cells. Briefly: Cell proliferation, trypan blue cell count. To be noted: Mepazine at 1 µM.
Assay [10] relates to N4BP1 cleavage in Jurkat T cells. The assay can be described thus: CD3/CD28-induced N4BP1 cleavage, Western blot (MALT1 protease activity). To be noted: for N4BP1 cleavage ratio: Jurkat T cells, 1 μM pretreatment, + CD3/CD28. On the procedure:
as §1

Assay [11] has as its system IKKα/β phosphorylation in Jurkat T cells. The assay can be described thus: IKKα/β phosphorylation after CD3/CD28 stimulation (MALT1 scaffolding activity). On the procedure:
as §1

For assay [12], the system named is BCL10 and MALT1 protein in OCI-Ly3 cells. Briefly: BCL10 and MALT1 protein levels, Western blot. The following applies: OCI-Ly3, 1 μM, 72 hours, result in words. On the procedure:
(§5) To test the possibility that M1i-124 destabilizes BCL10 and MALT1 within the cell as a consequence of disrupting BCL10-MALT1 interaction, we treated ABC-DLBCL cell lines (TMD8, OCI-Ly3) with M1i-124 for 72 hours and measured the cellular levels of the BCL10 and MALT1 proteins by Western blotting.
(§6) Figure 5 M1i-124 treatment leads to loss of BCL10 and MALT1 protein content in ABC-DLBCL cells. (A) Representative Western blots showing loss of BCL10 and MALT1 proteins, but not ERK1/2 protein, in TMD8 and OCI-Ly3 cells after 72 hours of treatment with 1 μM M1i-124. […] (B) Representative Western blots showing time-dependent loss of BCL10 and MALT1 in TMD8 cells treated with 1 μM M1i-124. (C) Representative Western blots showing dose-dependent loss of BCL10 and MALT1 proteins in TMD8 cells treated with […]. For A–C, band quantifications, normalized for GAPDH, are indicated below each blot. (D) Time-dependent change in BCL10 and MALT1 mRNA expression levels with 1 μM M1i-124 treatment in TMD8 cells. Statistical analysis was performed using unpaired t test between 0 hours and 72 hours (mean ± SEM; n = 3). *P < 0.05, ****P < 0.0001.

The subject of assay [13] is BCL10 and MALT1 protein in TMD8 cells. Briefly: BCL10 and MALT1 protein levels, Western blot. To be noted: TMD8, 1 μM, 72 hours, result in words. On the procedure:
as §5, §6

In assay [14] the test system is TMD8 cells. Briefly: IL6 and IL10 mRNA, qRT-PCR. To be noted: TMD8, 1 μM. On the procedure: TMD8 cells were treated with small molecule inhibitors for 24 with cultures conditions described above except that FBS was 5%. OCI-Ly3 were treated with inhibitors in serum free media for 24 hours. Total RNA extraction from cell lines was performed using RNeasy Plus Mini Kit (Qiagen, Cat# 74136). […]
as §4

As for `COc1ccc(CNS(=O)(=O)c2ccc(Cc3ccc(S(=O)(=O)NCc4ccc(OC)cc4)cc3)cc2)cc1` [M1i-124d1], the “RelB cleavage in TMD8 cells” value in assay [1] is reported as “markedly reduced cleavage of RelB”. In assay [2] (Day 0), the “OCI-Ly1 Viable Cells” value is 40000 and 20000. Moreover, the “expansion of culture (proliferation)” value in assay [2] (OCI-Ly1, single 1 μM dose, 12 days, result in words) is recorded as “no effect on expansion”; in assay [3] (OCI-Ly7, single 1 μM dose, 12 days, result in words), “no effect on expansion”; in [4] (TMD8, single 1 μM dose, 12 days, result in words), “significant reduction in the expansion”. The Viable cell count in assay [3] is 20000 and 40000. Also, the “TMD8 Viable Cells” value in assay [4] (Day 0) was found to be 20000. In addition, the “pIkB (normalized)” value in [5] (TMD8, 1 μM, 24 hours) is 0.264 and 0.345. Further, the “IκB phosphorylation in TMD8 cells” value in assay [5] (result in words) is “marked reduction in IκB phosphorylation”. Moreover, in [6] (result in words), the “RelB cleavage in stimulated Jurkat T cells” value is on record as “suppressed the cleavage”. The “IL-2” value in assay [7] (Jurkat, 0.01uM) is 893.077 pg/mL and 1049.97 pg/mL and 735.049 pg/mL; in assay [7] (Jurkat, 0.03uM) it was 736.84 pg/mL and 714.598 pg/mL and 588.162 pg/mL; in assay [7] (Jurkat, 0.1uM), 433.515 pg/mL and 416.061 pg/mL and 330.961 pg/mL; in [7] (Jurkat, 0.3uM) it was 349.469 pg/mL and 340.243 pg/mL and 270.034 pg/mL; in [7] (Jurkat, 1uM), 458.584 pg/mL and 443.361 pg/mL and 398.637 pg/mL; in [7] (Jurkat, 3uM), 550.731 pg/mL and 484.757 pg/mL and 435.445 pg/mL. Moreover, in [7] (result in words), the “IL-2 secretion from Jurkat T cells” value is recorded as “dose-dependent reduction in IL-2 secretion”. Further, the “IL2 mRNA (normalized)” value in assay [8] (1 μM) was 0.5238 and 0.3763 and 0.462. In addition, the “PMA/Iono-induced IL2 gene expression” value in assay [8] (pretreatment 4 hours, result in words) is on record as “reduction in PMA/Iono–induced IL2 gene expression”. Also, the “OCI-Ly3 Viable Cells” value in assay [9] (Day 0) was 20000; in assay [9] (Day 12), 340000 and 290000 and 320000. The N4BP1 cleavage ratio in assay [10] is 0.7459 and 0.3808 and 0.4872 and 0.5302. Further, the “N4BP1 cleavage in stimulated Jurkat T cells” value in [10] (result in words) is listed as “suppressed the cleavage”. Further, the “pIKK (normalized)” value in assay [11] (Jurkat, 1 μM, CD3/CD28 10 min) is 0.3485 and 0.3518 and 0.2777 and 0.3582 and 0.2291. Moreover, the IKK phosphorylation result in [11] (result in words) was “reduced IKK phosphorylation”. The “BCL10 and MALT1 protein levels” value in assay [12] and in assay [13] was “lesser effect” in each case. The “IL-10 mRNA (normalized)” value in assay [14] was 0.31 and 0.33 and 0.37 and 0.53 and 0.28 and 0.52. For the same compound, in assay [14] (24 hours, result in words), the “IL6 and IL10 mRNA levels” value is “significantly decrease IL6 and IL10 mRNA levels”.
For `CN1CCCC(CN2c3ccccc3Sc3ccccc32)C1` (stereo not shown) [Mepazine, mepazine, reference compound], the “OCI-Ly1 Viable Cells” value was 40000 and 20000 in [2] (Day 0); 99000 and 98000 and 71000 in assay [2] (Day 7); 280000 and 250000 and 290000 in assay [2] (Day 10). The same compound showed a Viable cell count in [3] of 20000. Besides, the “TMD8 Viable Cells” value was 20000 in assay [4] (Day 0); 830000 and 460000 and 590000 in assay [4] (Day 12). In addition, the Cl-RelB/FL-RelB ratio in assay [6] (Jurkat T cells, 1 μM pretreatment, + CD3/CD28) was 0.1288 and 0.1917 and 0.1562 and 0.1166. Moreover, the activity at 1 µM in [7] (Homo sapiens, Jurkat, PMA/Iono treated, 1 uM, Suppl Fig. 4A, read-out: IL-2 protein level (% of control)) was found to be 67.8%. Further, the “IL-2 protein level (% of control)” value in assay [7] (PMA/Iono treated, 1 uM, Suppl Fig. 4A) is 72.9318 % of control and 62.9989 % of control. Further, in [8] (5 μM), the “IL2 mRNA (normalized)” value was 0.1528 and 0.1464 and 0.1468. In addition, the “OCI-Ly3 Viable Cells” value in assay [9] (Day 0) came to 20000. Moreover, the N4BP1 cleavage ratio in assay [10] is 1.53 and 0.8223 and 0.868 and 0.8072. Further, the “BCL10 and MALT1 protein levels” value in assay [12] and in [13] was “not observed” each time.
